pIC50: −log10 of the molar value. Where two headings read alike, the source gives them in different places. Some results are limits rather than exact numbers.

IC50 data for 19 compounds are collected here from patent US6387905B2, “Compounds useful for inhibition of farnesyl protein transferase” (Schering Corporation, priority 1996, dated 2002).

Experiment [1] deals with COS Cell. Kind of experiment: COS Cell IC50 (Cell-Based Assay). Here is the method:
(§1) FPT IC50 (inhibition of farnesyl protein transferase, in vitro enzyme assay) and COS Cell IC50 (Cell-Based Assay) were determined following the assay procedures described in WO 95/10516, published Apr. 20, 1995. GGPT IC50 (inhibition of geranylgeranyl protein transferase, in vitro enzyme assay), Cell Mat Assay, and anti-tumor activity (in vivo anti-tumor studies) could be determined by the assay procedures described in WO 95/10516. The disclosure of WO 95/10516 is incorporated herein by reference thereto.

The target of experiment [2] is farnesyl protein transferase (FPT), H-ras (Homo sapiens, UniProt P49354+P49356). Kind of experiment: FPT IC50 (H-ras), inhibition of farnesyl protein transferase, in vitro enzyme assay. In kind it is biochemical. As to conditions: for IC50: Table 3, read-out: FPT IC50 (nM) (H-ras). How it is done: as §1
Experiment [3] has as its system Human tumor cells. The experiment in a line: Soft Agar Assay (anchorage-independent growth). In kind it is cell-based. As to conditions: Homo sapiens, Table 5; read-out: Soft Agar IC50. Here is the method:
Anchorage-independent growth is a characteristic of tumorgenic cell lines. Human tumor cells are suspended in growth medium containing 0.3% agarose and an indicated concentration of a farnesyl transferase inhibitor. The solution is overlayed onto growth medium solidified with 0.6% agarose containing the same concentration of farnesyl transferase inhibitor as the top layer. After the top layer is solidified, plates are incubated for 10-16 days at 37° C. under 5% CO2 to allow colony outgrowth. After incubation, the colonies are stained by overlaying the agar with a solution of MTT (3-[4,5-dimethyl-thiazol-2-yl]-2,5-diphenyltetrazolium bromide, Thiazolyl blue) (1 mg/mL in PBS). Colonies can be counted and the IC50's can be determined.

Where [4] appears, read: COS, Table 5, read-out: Cos Cell IC50.
[5] abbreviates: H-ras, read-out: FPT IC50 (H-ras).

What is called pIC50 is the IC50 on a negative log10 scale, so that one unit is a factor of ten. As usually defined, the IC50 is the concentration needed to halve the response being measured. Take `O=C(CC1CCN(C(=O)CN2CCS(=O)(=O)CC2)CC1)N1CCC(C2c3ncc(Br)cc3CCc3cc(Cl)cc(Br)c32)CC1` (single isomer, unassigned; (+)) [Example 23]: the pIC50 in experiment [1] (COS, Table 3, read-out: COS Cell IC50) is 7.85. Also, in experiment [2] (H-ras), the concentration for half-maximal inhibition (IC50) came to 2.7 nM.
Consider `O=C(CC1CCN(C(=O)CN2CCCCC2)CC1)N1CCC([C@H]2c3ncc(Br)cc3CCc3cc(Cl)cc(Br)c32)CC1` [Cmpd 75.0-B], for which the negative logarithm of the IC50 (pIC50) was 8.00 in experiment [1] (setting [4]); 6.82 in experiment [3]; 8.33 in experiment [2] (Table 4, read-out: FPT IC50).
Take `COC(NC(=O)CC(=O)N1CCC(CC(=O)N2CCC([C@H]3c4ncc(Br)cc4CCc4cc(Cl)cc(Br)c43)CC2)CC1)C(C)C` (stereo partly drawn) [Cmpd 51.0-B]: the pIC50 in experiment [1] (setting [4]) was 6.55; in experiment [2] (Table 4, read-out: FPT IC50), 8.09.
Regarding `CCOC(=O)c1c(C)ncn1CC(=O)N1CCC(CC(=O)N2CCC([C@H]3c4ncc(Br)cc4CCc4cc(Cl)cc(Br)c43)CC2)CC1` [Cmpd 21.0-B], the pIC50 in experiment [3] is under 6.30; in experiment [2] (Table 4, read-out: FPT IC50), 8.24.
For `O=C(O)CCCC(=O)N1CCC(CC(=O)N2CCC([C@H]3c4ncc(Br)cc4CCc4cc(Cl)cc(Br)c43)CC2)CC1` [Example 19.0-B], the negative logarithm of the IC50 (pIC50) is 7.76 in experiment [1] (COS, read-out: Cos Cell IC50, Table 5); over 8.00 in experiment [1] (read-out: Cos Cell IC50, Table 5); 8.96 in experiment [2] (Table 4, read-out: FPT IC50).
As for `CC(C)(C)OC(=O)N[C@@H](Cc1ccccc1)C(=O)N1CCC(CC(=O)N2CCC([C@H]3c4ncc(Br)cc4CCc4cc(Cl)cc(Br)c43)CC2)CC1` [Example 7], the concentration for half-maximal inhibition (IC50) in experiment [2] (H-ras) turned out to be 31.7 nM.
Regarding `O=C(CC1CCN(C(=O)Cn2cnc(-c3ccccc3)c2)CC1)N1CCC([C@H]2c3ncc(Br)cc3CCc3cc(Cl)cc(Br)c32)CC1` [Cmpd 20.0-B], the negative-log IC50 (pIC50) in experiment [2] (Table 4, read-out: FPT IC50) was 8.25.
Consider `O=C(CC1CCN(C(=O)CN2C(=O)CSC2=O)CC1)N1CCC([C@H]2c3ncc(Br)cc3CCc3cc(Cl)cc(Br)c32)CC1` [Example 79.0-B], for which the pIC50 in experiment [2] (setting [5]) was 8.36.
Consider `CC(C)=NOCCC(=O)N1CCC(CC(=O)N2CCC([C@H]3c4ncc(Br)cc4CCc4cc(Cl)cc(Br)c43)CC2)CC1` [Example 23.0-B], for which, in experiment [2] (setting [5]), the pIC50 was 8.55.
Take `O=C(CO)N1CCC(CC(=O)N2CCC([C@H]3c4ncc(Br)cc4CCc4cc(Cl)cc(Br)c43)CC2)CC1` [Cmpd 37.0-B]: the negative logarithm of the IC50 (pIC50) is 7.12 in experiment [3] and 8.59 in experiment [2] (Table 4, read-out: FPT IC50).
On to `CNC(=O)C(=O)N1CCC(CC(=O)N2CCC([C@H]3c4ncc(Br)cc4CCc4cc(Cl)cc(Br)c43)CC2)CC1` [Cmpd 64.0-B], for which the pIC50 was 8.00 in experiment [1] (setting [4]) and 6.89 in experiment [3].
Take `NCCCC(=O)N1CCC(CC(=O)N2CCC([C@H]3c4ncc(Br)cc4CCc4cc(Cl)cc(Br)c43)CC2)CC1` [Cmpd 90.0-B]: in experiment [2] (Table 4, read-out: FPT IC50), the negative-log IC50 (pIC50) is 8.42.
As for `CCOC(CC(=O)N1CCC(CC(=O)N2CCC([C@H]3c4ncc(Br)cc4CCc4cc(Cl)cc(Br)c43)CC2)CC1)OCC` [Cmpd 76.0-B], in experiment [2] (Table 4, read-out: FPT IC50), the negative-log IC50 (pIC50) is 8.17.
On to `NC(=O)CCCCC(=O)N1CCC(CC(=O)N2CCC([C@H]3c4ncc(Br)cc4CCc4cc(Cl)cc(Br)c43)CC2)CC1` [Cmpd 67.0-B], for which the pIC50 in experiment [2] (Table 4, read-out: FPT IC50) was 8.46.
Consider `NC(=O)CCCCC(=O)N1CCC(CC(=O)N2CCC([C@H]3c4ncc(Br)cc4CCc4cc(Cl)cc(Br)c43)CC2)CC1` [Example 108.0-B], for which the negative logarithm of the IC50 (pIC50) in experiment [2] (setting [5]) was 8.46.
For the compound `CC(C)(C)OC(=O)NCCC(=O)N1CCC(CC(=O)N2CCC([C@H]3c4ncc(Br)cc4CCc4cc(Cl)cc(Br)c43)CC2)CC1` [Example 86.0-B], in experiment [2] (Table 4, read-out: FPT IC50), the negative logarithm of the IC50 (pIC50) is 7.74.
`CCOC(=O)c1c(C)ncn1CC(=O)N1CCC(CC(=O)N2CCC([C@H]3c4ncc(Br)cc4CCc4cc(Cl)cc(Br)c43)CC2)CC1` [Cmpd 53.0-B]: the pIC50 was 7.30 in experiment [1] (setting [4]) and 8.44 in experiment [2] (Table 4, read-out: FPT IC50).
For the compound `O=C(CCN1CCCCC1)N1CCC(CC(=O)N2CCC([C@H]3c4ncc(Br)cc4CCc4cc(Cl)cc(Br)c43)CC2)CC1` [Cmpd 7.0-B], the pIC50 in experiment [1] (setting [4]) is 7.37; in experiment [2] (Table 4, read-out: FPT IC50) it was over 8.59.
Regarding `O=C(NO)C(=O)N1CCC(CC(=O)N2CCC([C@H]3c4ncc(Br)cc4CCc4cc(Cl)cc(Br)c43)CC2)CC1` [Cmpd 58.0-B], the pIC50 in experiment [2] (Table 4, read-out: FPT IC50) was 7.80.
